Data taken from patent US20230167073A1 (Teijin Pharma Limited, priority 2020, published 2023).

target: T1, Human TRPC6 (Homo sapiens, UniProt Q9Y210); assay: Evaluation of TRPC6 channel inhibitory activity (1), FLIPR Calcium 5 Assay Kit, OAG stimulation (Compound Nos. 1-1293); format: cell-based; conditions: Human TRPC6 stably-expressing cells, OAG 30 μM, FLIPR Calcium 5 Assay Kit; read-out: Inhibitory activity (pIC50 class) (converted)
T1 construct: expressed in transfected cells
T1 sequence (Q9Y210 1-931): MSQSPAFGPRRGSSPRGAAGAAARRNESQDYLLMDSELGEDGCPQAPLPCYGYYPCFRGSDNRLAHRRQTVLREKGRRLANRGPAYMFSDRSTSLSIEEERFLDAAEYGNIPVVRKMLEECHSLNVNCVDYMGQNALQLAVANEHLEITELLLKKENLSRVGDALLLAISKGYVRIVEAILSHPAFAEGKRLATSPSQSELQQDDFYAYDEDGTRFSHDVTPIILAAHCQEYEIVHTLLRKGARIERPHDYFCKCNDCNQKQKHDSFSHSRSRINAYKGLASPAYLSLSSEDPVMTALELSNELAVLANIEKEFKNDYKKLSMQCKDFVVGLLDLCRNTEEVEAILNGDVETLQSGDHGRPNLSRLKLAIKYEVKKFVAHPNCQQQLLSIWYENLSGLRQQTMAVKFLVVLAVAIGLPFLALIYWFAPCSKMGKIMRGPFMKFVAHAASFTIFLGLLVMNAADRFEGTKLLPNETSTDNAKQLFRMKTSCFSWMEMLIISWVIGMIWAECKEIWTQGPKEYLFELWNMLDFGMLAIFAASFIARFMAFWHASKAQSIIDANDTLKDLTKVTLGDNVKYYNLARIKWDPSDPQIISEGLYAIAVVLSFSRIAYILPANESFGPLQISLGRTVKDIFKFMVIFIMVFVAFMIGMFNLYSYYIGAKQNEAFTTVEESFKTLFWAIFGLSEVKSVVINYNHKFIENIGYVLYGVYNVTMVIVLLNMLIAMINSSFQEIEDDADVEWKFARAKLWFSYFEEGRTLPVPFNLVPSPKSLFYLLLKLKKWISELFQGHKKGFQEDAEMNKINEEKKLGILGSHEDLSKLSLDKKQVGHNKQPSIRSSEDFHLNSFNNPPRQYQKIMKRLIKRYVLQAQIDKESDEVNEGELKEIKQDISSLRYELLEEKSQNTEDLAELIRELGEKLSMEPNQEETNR
Summary of the method: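 The FLIPR signal is maximum fluorescence after 30 μM OAG minus minimum before compound, measured in a human TRPC6 stable line loaded with Calcium 5 dye. Compounds were preincubated 20 min. pIC50 came from four-parameter logistic fitting of inhibition rates and is given as symbol ranges.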

Row | IC50 | Compound
1 | 10 to 1000 nM | N#Cc1ccc(-c2ccc(CCN)cc2)c(Oc2cnnc(-c3cccc(F)c3C#N)c2)c1 [Compound 84, 2-[5-[2-[4-(2-aminoethyl)phenyl]-5-cyanophenoxy]pyridazin-3-yl]-6-fluorobenzonitrile]
2 | 10 to 1000 nM | Cc1nc(Oc2cc(C#N)ccc2-c2ccc(CCN)cn2)cc(N2CCOCC2)n1 [Compound 85, 4-[5-(2-aminoethyl)pyridin-2-yl]-3-(2-methyl-6-morpholin-4-ylpyrimidin-4-yl)oxybenzonitrile]
3 | 10 to 1000 nM | Cc1nc(Oc2cc(C#N)ccc2-c2ccc(CCN)cn2)cc(-c2ccccc2)n1 [Compound 86, 4-[5-(2-aminoethyl)pyridin-2-yl]-3-(2-methyl-6-phenylpyrimidin-4-yl)oxybenzonitrile]
4 | > 1000 nM | N#Cc1ccc(-c2ccc(CCN)cn2)c(Oc2cnnc(Cl)c2)c1 [Compound 87, 4-[5-(2-aminoethyl)pyridin-2-yl]-3-(6-chloropyridazin-4-yl)oxybenzonitrile]
5 | > 1000 nM | N#Cc1ccc(-c2ccc(CCN)cn2)c(Oc2cc(Cl)cnn2)c1 [Compound 88, 4-[5-(2-aminoethyl)pyridin-2-yl]-3-(5-chloropyridazin-3-yl)oxybenzonitrile]
6 | > 1000 nM | N#Cc1ccc(-c2ccc(CCN)cn2)c(Oc2cnnc(N3CCOCC3)c2)c1 [Compound 89, 4-[5-(2-aminoethyl)pyridin-2-yl]-3-(6-morpholin-4-ylpyridazin-4-yl)oxybenzonitrile]
7 | 10 to 1000 nM | N#Cc1ccc(-c2ccc(CCN)cn2)c(Oc2cnnc(N3CCCCC3)c2)c1 [Compound 90, 4-[5-(2-aminoethyl)pyridin-2-yl]-3-(6-piperidin-1-ylpyridazin-4-yl)oxybenzonitrile]
8 | > 1000 nM | N#Cc1ccc(-c2ccc(CCN)cn2)c(Oc2cc(N3CCOCC3)cnn2)c1 [Compound 91, 4-[5-(2-aminoethyl)pyridin-2-yl]-3-(5-morpholin-4-ylpyridazin-3-yl)oxybenzonitrile]
9 | > 1000 nM | N#Cc1ccc(-c2ccc(CCN)cn2)c(Oc2cc(N3CCCCC3)cnn2)c1 [Compound 92, 4-[5-(2-aminoethyl)pyridin-2-yl]-3-(5-piperidin-1-ylpyridazin-3-yl)oxybenzonitrile]
10 | < 10 nM | N#Cc1ccc(-c2ccc(CCN)cc2)c(Oc2cnnc(-c3ccccc3C#N)c2)c1 [Compound 93, 4-[4-(2-aminoethyl)phenyl]-3-[6-(2-cyanophenyl)pyridazin-4-yl]oxybenzonitrile]
11 | > 1000 nM | N#Cc1ccc(-c2ccc(CCN)cc2)c(Oc2cnnc(-c3ccccc3C(N)=O)c2)c1 [Compound 94, 2-[5-[2-[4-(2-aminoethyl)phenyl]-5-cyanophenoxy]pyridazin-3-yl]benzamide]
12 | > 1000 nM | Cc1nc(Oc2cc(C#N)ccc2-c2ccc3c(c2)CNCC3)cc(N2CCOCC2)n1 [Compound 95, 3-(2-methyl-6-morpholin-4-ylpyrimidin-4-yl)oxy-4-(1,2,3,4-tetrahydroisoquinolin-7-yl)benzonitrile]
13 | > 1000 nM | Cc1nc(Oc2cc(C#N)ccc2-c2ccc(C(O)CN(C)C)cc2)cc(-c2ccccc2)n1 (stereo not drawn) [Compound 96, 4-[4-[2-(dimethylamino)-1-hydroxyethyl]phenyl]-3-(2-methyl-6-phenylpyrimidin-4-yl)oxybenzonitrile]
14 | > 1000 nM | Cc1nc(Oc2cc(C#N)ccc2-c2ccc(C(O)CN3CCCC3)cc2)cc(-c2ccccc2)n1 (stereo not drawn) [Compound 97, 4-[4-(1-hydroxy-2-pyrrolidin-1-ylethyl)phenyl]-3-(2-methyl-6-phenylpyrimidin-4-yl)oxybenzonitrile]
15 | > 1000 nM | Cc1nc(Oc2cc(C#N)ccc2-c2nc(C)c(C(O)CN(C)C)s2)cc(-c2ccccc2)n1 (stereo not drawn) [Compound 98, 4-[5-[2-(dimethylamino)-1-hydroxyethyl]-4-methyl-1,3-thiazol-2-yl]-3-(2-methyl-6-phenylpyrimidin-4-yl)oxybenzonitrile]
